Assay results: patent publication US20250345329A1, “HETEROARYL DERIVATIVE COMPOUND AND USES THEREOF” (VORONOI, INC., priority 2022, published 2025)

Experiments:
[1] = target: T1, human EGFR (d746-750/T790M/C797S) (Homo sapiens, UniProt P00533, C797S/DEL746-750/T790M); assay: EGFR C797S enzyme inhibition activity (ADP-Glo kinase assay); format: biochemical; details: purified enzyme 3 ng, ATP 5 μM, 25° C., 1 hour, luminescence; read-out: EGFR DTC Enzyme IC50
T1 construct: human EGFR (d746-750/T790M/C797S) (668-end, SignalChem); purchased SignalChem
Summary of the method: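 Kinase construct 668-end (3 ng) was incubated with 5 μM ATP and 0.2 μg substrate in Tris pH 7.4 buffer for 1 h at 25° C. ADP-Glo luminescence was read over 12 final compound concentrations from 10 μM down to 0. IC50 was taken as 50% inhibition relative to the solvent control.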

[2] = tested on: Ba/F3 expressing EGFR Del19/T790M/C797S mutations; assay: Inhibitory activity on proliferation of Ba/F3 cell overexpressing EGFR C797S (Cell Titer-Glo); format: cell-based; details: Mus musculus, BaF3; 72 hours treatment, cell growth rate vs control; read-out: Ba/F3 (EGFR DTC) GI50
Summary of the method: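 Ba/F3 cells with EGFR Del19/T790M/C797S in RPMI-1640 + 10% FBS were seeded (3000/well) 24 h before 72 h compound exposure at 37 °C. Compounds were tested in a 12-point 3-fold series, final […]–5 μM. CellTiter-Glo luminescence gave growth % versus control, from which GI50 was derived.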

T1 sequence (P00533 with tags, fused parts or gaps DEL746-750/T790M/C797S): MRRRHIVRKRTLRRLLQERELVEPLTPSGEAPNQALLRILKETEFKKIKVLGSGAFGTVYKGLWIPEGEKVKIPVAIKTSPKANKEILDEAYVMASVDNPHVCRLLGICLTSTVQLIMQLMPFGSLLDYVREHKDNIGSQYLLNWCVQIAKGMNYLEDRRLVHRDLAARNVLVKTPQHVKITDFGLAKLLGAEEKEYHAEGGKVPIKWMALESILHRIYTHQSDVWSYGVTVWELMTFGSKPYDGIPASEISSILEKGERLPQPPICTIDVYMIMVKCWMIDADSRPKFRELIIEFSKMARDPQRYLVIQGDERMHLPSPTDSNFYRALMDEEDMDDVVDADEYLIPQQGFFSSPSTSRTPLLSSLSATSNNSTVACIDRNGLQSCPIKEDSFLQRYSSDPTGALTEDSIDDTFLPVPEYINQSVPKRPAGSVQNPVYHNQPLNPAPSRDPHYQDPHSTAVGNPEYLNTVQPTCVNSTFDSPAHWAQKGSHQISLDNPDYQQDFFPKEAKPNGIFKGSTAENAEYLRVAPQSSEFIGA

Compound	IC50 [1] [nM]	GI50 [2] [nM]
CC(C)Nc1cc(Nc2ccnc(-c3cnn(S(=O)(=O)C4CC4)c3)n2)ncc1C(=O)NCCCO [Example 57, 6-((2-(1-(cyclopropylsulfonyl)-1H-pyrazol-4-yl)pyrimidin-4-yl)amino)-N-(3-hydroxypropyl)-4-(isopropylamino)nico-tinamide]	< 50	500 to 5000
CC(C)Nc1cc(Nc2ccnc(-c3cnn(S(=O)(=O)C4CC4)c3)n2)ncc1C(=O)N1CC[C@H](CN2CCN(C)CC2)C1 [Example 65, (R)-(6-((2-(1-(cyclopropylsulfonyl)-1H-pyrazol-4-yl)pyrimidin-4-yl)amino)-4-(isopropylamino)pyri-din-3-)(3-((4-methylpiperazin-1-yl)methyl)pyrrolidin-1-yl)methanone]	< 50	500 to 5000
CS(=O)(=O)CC1CN(C(=O)c2cnc(Nc3ccnc(-c4cnn(S(=O)(=O)C5CC5)c4)n3)cc2NC2CCCC2)C1 [Example 6, (4-(cyclopentylamino)-6-((2-(1-(cyclopropylsulfonyl)-1H-pyrazol-4-yl)pyrimidin-4-yl)amino)pyridin-3-yl)(3-((methylsulfonyl)meth-yl)azetidin-1-yl)methanone]	< 50	500 to 5000
CS(=O)(=O)CC1CN(C(=O)c2cnc(Nc3ccnc(-c4cnn(S(=O)(=O)C5CC5)c4)n3)cc2NC2CCOC2)C1 (stereo not shown) [Example 7, (6-((2-(1-(cyclopropylsulfonyl)-1H-pyrazol-4-yl)pyrimidin-4-yl)amino)-4-((tetrahydrofuran-3-yl)amino)pyridin-3-yl)(3-((methylsulfonyl)meth-yl)azetidin-1-yl)methanone]	< 50	500 to 5000
CC(C)Nc1cc(Nc2ccnc(-c3cnn(S(=O)(=O)C4CC4)c3)n2)ncc1C(=O)NC1CN(S(C)(=O)=O)C1 [Example 48, 6-((2-(1-(cyclopropylsulfonyl)-1H-pyrazol-4-yl)pyrimidin-4-yl)amino)-4-(isopropylamino)-N-(1-(methylsulfonyl)azeti-din-3-yl)nicotinamide]	< 50	< 500
CC(C)Nc1cc(Nc2ccnc(-c3cnn(S(=O)(=O)C4CC4)c3)n2)ncc1C(=O)NC1CCN(S(C)(=O)=O)C1 (stereo not shown) [Example 49, 6-((2-(1-(cyclopropylsulfonyl)-1H-pyrazol-4-yl)pyrimidin-4-yl)amino)-4-(isopropylamino)-N-(1-(methylsulfonyl)pyrro-lidin-3-yl)nicotinamide]	< 50	500 to 5000
CC(C)Nc1cc(Nc2ccnc(-c3cnn(S(=O)(=O)C4CC4)c3)n2)ncc1C(=O)Nc1cc(CN2CCN(C)CC2)cc(C(F)(F)F)c1 [Example 25, 6-((2-(1-(cyclopropylsulfonyl)-1H-pyrazol-4-yl)pyrimidin-4-yl)amino)-4-(isopropylamino)-N-(3-((4-methylpiperazin-1-yl)methyl)-5-(trifluoromethyl)phe-nyl)nicotinamide]	50 to 500	500 to 5000
CC(C)Nc1cc(Nc2ccnc(-c3cnn(S(=O)(=O)C4CC4)c3)n2)ncc1C(=O)NC[C@@H]1CCCN1 [Example 76, (S)-6-((2-(1-(cyclopropylsulfonyl)-1H-pyrazol-4-yl)pyrimidin-4-yl)amino)-4-(isopropylamino)-N-(pyrrolidin-2-ylmethyl)nicotinamide]	< 50	500 to 5000
CC(C)Nc1cc(Nc2ccnc(-c3cnn(S(=O)(=O)C4CC4)c3)n2)ncc1C(=O)NCCCS(C)(=O)=O [Example 64, 6-((2-(1-(cyclopropylsulfonyl)-1H-pyrazol-4-yl)pyrimidin-4-yl)amino)-4-(isopropylamino)-N-(3-(methyl-sulfonyl)propyl) nicotinamide]	50 to 500	500 to 5000
COC(=O)CCNC(=O)c1cnc(Nc2ccnc(N3CC[C@H](OC)[C@H](F)C3)n2)cc1NC(C)C (relative stereo) [Example 97, methyl 3-(6-((2-(cis-3-fluoro-4-methoxypiperidin-1-yl)pyrimidin-4-yl)amino)-4-(isopropylamino)nico-tinamido)propanoate]	< 50	500 to 5000
CC(C)Nc1cc(Nc2ccnc(-c3cnn(S(=O)(=O)C4CC4)c3)n2)ncc1C(=O)NCc1ccc(F)cc1 [Example 61, 6-((2-(1-(cyclopropylsulfonyl)-1H-pyrazol-4-yl)pyrimidin-4-yl)amino)-N-(4-fluorobenzyl)-4-(isopropylamino)nico-tinamide]	50 to 500	500 to 5000
C[C@H]1CCOc2c(cnn2C)-c2nccc(n2)Nc2cc(c(C(=O)N3CC(CS(C)(=O)=O)C3)cn2)N1 [Example 105, (S)-(1^1,6-dimethyl-1^1H-9-oxa-3,5-diaza-2(2,4)-pyrimidina-4(2,4)-pyridina-1(4,5)-pyrazolacyclo-nonaphane-4^5-yl)(3-((methylsulfonyl)meth-yl)azetidin-1-yl)methanone]	< 50	500 to 5000
CC(C)Nc1cc(Nc2ccnc(-c3cnn(S(=O)(=O)C4CC4)c3)n2)ncc1C(=O)NC(CCN(C)C)c1ccccc1 (stereo not shown) [Example 53, 6-((2-(1-(cyclopropylsulfonyl)-1H-pyrazol-4-yl)pyrimidin-4-yl)amino)-N-(3-(dimethylamino)-1-phenylpropyl)-4-(isopropylamino)nico-tinamide]	< 50	500 to 5000

Now from value to compound:

IC50 [1] [nM]	GI50 [2] [nM]	Compound
50 to 500	500 to 5000	CC(C)Nc1cc(Nc2ccnc(-c3cnn(S(=O)(=O)C4CC4)c3)n2)ncc1C(=O)N[C@@H](C(C)C)C(F)(F)F [Example 79, (S)-6-((2-(1-(cyclopropylsulfonyl)-1H-pyrazol-4-yl)pyrimidin-4-yl)amino)-4-(isopropylamino)-N-(1,1,1-trifluoro-3-methylbutan-2-yl)nicotinamide]
< 50	500 to 5000	CC(C)Nc1cc(Nc2ccnc(-c3cnn(S(=O)(=O)C4CC4)c3)n2)ncc1C(=O)N1CC(CS(C)(=O)=O)C1 [Example 1, (6-((2-(1-(cyclopropylsulfonyl)-1H-pyrazol-4-yl)pyrimidin-4-yl)amino)-4-(isopropylamin)pyri-din-3-yl)(3-((methylsulfonyl)meth-yl)azetidin-1-yl)methanone]
50 to 500	500 to 5000	CO[C@H]1CCN(c2nccc(Nc3cc(NC4CCNC4)c(C(=O)N4CC(CS(C)(=O)=O)C4)cn3)n2)C[C@H]1F (relative stereo) [Example 15, (6-((2-(cis-3-fluoro-4-methoxypiperidin-1-yl)pyrimidin-4-yl)amino)-4-(pyrrolidin-3-ylamino)pyridin-3-yl)(3-((methylsulfonyl)meth-yl)azetidin-1-yl)methanone]
< 50	500 to 5000	CC(C)Nc1cc(Nc2ccnc(-c3cnn(S(=O)(=O)C4CC4)c3)n2)ncc1C(=O)NCCS(=O)(=O)N(C)C [Example 73, 6-((2-(1-(cyclopropylsulfonyl)-1H-pyrazol-4-yl)pyrimidin-4-yl)amino)-N-(2-(N,N-dimethylsulfamoyl)eth-yl)-4-(isopropylamino)nico-tinamide]
< 50	500 to 5000	COC(=O)CCNC(=O)c1cnc(Nc2ccnc(-c3cnn(S(=O)(=O)C4CC4)c3)n2)cc1NC(C)C [Example 50, methyl 3-(6-((2-(1-(cyclopropylsulfonyl)-1H-pyrazol-4-yl)pyrimidin-4-yl)amino)-4-(isopropylamino)nico-tinamido)propanoate]
< 50	500 to 5000	CC(C)Nc1cc(Nc2ccnc(-c3cnn(S(=O)(=O)C4CC4)c3)n2)ncc1C(=O)NCCS(C)(=O)=O [Example 35, 6-((2-(1-(cyclopropylsulfonyl)-1H-pyrazol-4-yl)pyrimidin-4-yl)amino)-4-(isopropylamino)-N-(2-(methylsulfonyl)ethyl) nicotinamide]
< 50	500 to 5000	CC(C)Nc1cc(Nc2ccnc(-c3cnn(S(=O)(=O)C4CC4)c3)n2)ncc1C(=O)NCC(F)(F)F [Example 78, 6-((2-(1-(cyclopropylsulfonyl)-1H-pyrazol-4-yl)pyrimidin-4-yl)amino)-4-(isopropylamino)-N-(2,2,2-trifluoroethyl)nicotin-amide]
